Measurements from US20060122105A1, “Method of improing the growth performance of an animal” (priority 2001, published 2006).

Legend:
[1] = system: Actinobacillus pleuropneumoniae (App); assay: App challenge of pigs, prophylactic recombinant IL-1ra, plasmid IL-1ra or flunix (Example 5); type: in vivo; settings: day 13 after challenge compared with pre-challenge levels; FIG. 35
[2] = system: Actinobacillus pleuropneumoniae (App); assay: as above; type: in vivo; parameters: improvements in weight gain over saline controls / reduction in weight gain compared to saline controls / reduction in clinical symptoms compared to saline / reduction of pleurisy compared to saline treated controls / reduction in affected lung mass compared to saline treated controls: concentration or dose not given beside the values
Protocol: Male pigs, with a mean starting weight of 52 kg, were allocated to 5 treatment groups as outlined in Table 6. Pigs were housed in group pens, with each pen containing a replicate from each of the treatment groups. The starting weights of each treatment group and each pen were equal prior to the start of the trial. Pigs were provided with pelleted feed and water ad libitum.
Recombinant IL-1ra and saline-were administered as 1 ml doses, given subcutaneously behind the ear. Plasmids were administered in 1 ml doses, given intramuscularly in the hind-leg. Flunix was administered as a 2 ml dose according to the manufacturer's instructions, and delivered intramuscularly in the neck. The timetable of administration is outlined in Table 6 below.
Prior to challenge, pigs were treated with recombinant cytokines, flunix or plasmids as described Table 7. Pigs were anaesthetised and infected intratracheally with 7.5×10^5 pfu App on day 0.
Blood was sampled from pigs by venipuncture at 0, 24 h and 14 days post-challenge. Blood was assayed for immunological parameters as previously described. Pigs were weighed weekly from delivery of plasmids and for 2 weeks after challenge.
At the conclusion of the trial, pigs were euthanased and the lungs removed for post-mortem examination. Lungs were scored for pleurisy from 0-5 (FIGS. 39 and 40) and the degree of pleuropneumonia was determined by weighing affected lung and expressed as a percentage of total lung weight (FIGS. 41 and 42). Pigs treated with flunix and IL-1ra had less pleurisy than the saline controls (FIG. 39).

Q: Which results are given for `Cc1c(Nc2ncccc2C(=O)O)cccc1C(F)(F)F` [flunix, reference compound]?
A: levels of TNFα protein in the serum [1]: failed to inhibit the production of TNFα; reduction in weight gain compared to saline controls ([2]; 14d App challenge, FIG. 33): 84.6%; production of IL-6 (mRNA in peripheral blood) ([2]; after App challenge, compared with saline treated controls, FIG. 36): reduce the production of IL-6 only; growth during the week of challenge ([2]; first week after App challenge, FIG. 30): weight loss; reduction in affected lung mass compared to saline treated controls ([2]; percentage of lung affected by App lesions, FIG. 42): 64.1%; reduction of pleurisy compared to saline treated controls ([2]; pleurisy score 0-5 at necropsy, FIG. 40): 55.6%
